The values below come from BindingDB's records for doi:10.7270/Q2T72HDT (Dupont Pharmaceuticals, 1995).

The target in test [1] is T1, Sterol O-acyltransferase 1 (Rattus norvegicus, UniProt O70536).
T1 sequence (O70536 whole entry): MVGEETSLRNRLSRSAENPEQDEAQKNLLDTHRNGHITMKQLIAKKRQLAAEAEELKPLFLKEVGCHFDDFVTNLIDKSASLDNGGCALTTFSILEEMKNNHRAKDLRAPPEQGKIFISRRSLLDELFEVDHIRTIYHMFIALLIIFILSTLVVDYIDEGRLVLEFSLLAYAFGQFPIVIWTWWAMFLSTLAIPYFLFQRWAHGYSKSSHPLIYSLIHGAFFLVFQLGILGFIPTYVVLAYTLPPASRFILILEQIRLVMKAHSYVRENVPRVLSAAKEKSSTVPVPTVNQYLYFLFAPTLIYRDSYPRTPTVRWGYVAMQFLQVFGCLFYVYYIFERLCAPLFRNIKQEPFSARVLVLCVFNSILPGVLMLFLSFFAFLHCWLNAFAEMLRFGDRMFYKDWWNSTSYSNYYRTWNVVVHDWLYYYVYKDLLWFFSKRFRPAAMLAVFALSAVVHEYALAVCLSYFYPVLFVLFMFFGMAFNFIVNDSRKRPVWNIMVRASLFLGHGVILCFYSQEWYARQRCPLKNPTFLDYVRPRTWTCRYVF
Kind of test: ChEBML_28360. An excerpt: In vitro inhibition of Acyl coenzyme A:cholesterol acyltransferase (ACAT) in rat hepatic microsomes

Test [2] addresses T2, Sterol O-acyltransferase 1 (Mus musculus, UniProt Q61263).
T2 sequence (Q61263 whole entry): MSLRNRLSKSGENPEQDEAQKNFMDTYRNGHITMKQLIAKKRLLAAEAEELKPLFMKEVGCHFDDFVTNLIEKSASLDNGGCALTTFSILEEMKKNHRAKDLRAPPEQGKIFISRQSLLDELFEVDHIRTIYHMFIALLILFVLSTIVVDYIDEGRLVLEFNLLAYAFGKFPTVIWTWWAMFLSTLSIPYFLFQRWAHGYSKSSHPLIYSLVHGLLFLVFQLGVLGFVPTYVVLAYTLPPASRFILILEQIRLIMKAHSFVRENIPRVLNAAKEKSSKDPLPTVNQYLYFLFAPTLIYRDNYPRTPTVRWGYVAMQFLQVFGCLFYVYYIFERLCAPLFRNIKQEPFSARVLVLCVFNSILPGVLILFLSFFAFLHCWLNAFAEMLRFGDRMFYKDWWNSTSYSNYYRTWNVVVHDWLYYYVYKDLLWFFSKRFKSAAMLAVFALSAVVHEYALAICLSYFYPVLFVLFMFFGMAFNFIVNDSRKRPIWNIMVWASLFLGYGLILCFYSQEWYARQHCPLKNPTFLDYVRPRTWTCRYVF
The test is described as follows: ChEBML_28026. An excerpt: Inhibition of Acyl coenzyme A:cholesterol acyltransferase (ACAT) in J774 Macrophage cell culture

The IC50 is the point on the concentration scale where inhibition reaches its midpoint. Higher therefore signals weaker potency in that assay. As to `COc1ccc(-c2nc(SCCCCCN(CCCCCSc3nc(-c4ccccc4)c(-c4ccccc4)[nH]3)C(=O)NC(C)C)[nH]c2-c2ccc(OC)cc2)cc1`, the figures for the half-inhibitory concentration (IC50) in test [1] and in test [2] were 0.09 µM and 0.1 µM, respectively.
Turning to `COc1ccc(-c2nc(SCCCCCN(CCCCCSc3nc(-c4ccc(OC)cc4)c(-c4ccc(OC)cc4)[nH]3)C(=O)NC(C)C)[nH]c2-c2ccc(OC)cc2)cc1`, the IC50 in test [1] came out at 0.09 µM; in test [2], 0.01 µM.
For `CN(C)c1ccc(-c2nc(SCCCCCN(CCCCCSc3nc(-c4ccccc4)c(-c4ccccc4)[nH]3)C(=O)Nc3ccc(F)cc3F)[nH]c2-c2ccc(N(C)C)cc2)cc1` the same measures were 0.003 µM and 0.45 µM.
For `CN(C)c1ccc(-c2nc(SCCOCCSc3nc(-c4ccc(N(C)C)cc4)c(-c4ccc(N(C)C)cc4)[nH]3)[nH]c2-c2ccc(N(C)C)cc2)cc1`, in that order: 0.134 µM and 0.37 µM.
For `c1ccc(-c2nc(SCCCSCCCSc3nc(-c4ccccc4)c(-c4ccccc4)[nH]3)[nH]c2-c2ccccc2)cc1`, the half-maximal inhibitory concentration (IC50) in test [2] is 7.96 µM.
On to `O=C(Nc1ccc(F)cc1F)N(CCCCCSc1nc(-c2ccccc2)c(-c2ccccc2)[nH]1)CCc1ccccn1`, for which the half-maximal inhibitory concentration (IC50) in test [1] was found to be 0.08 µM; in test [2] it was 2.44 µM.
Regarding `COc1ccc(-c2nc(SCCOCCSc3nc(-c4ccccc4)c(-c4ccccc4)[nH]3)[nH]c2-c2ccc(OC)cc2)cc1`, it took 3.87 µM to reach half-maximal inhibition in test [2] (IC50).
Turning to `c1ccc(-c2nc(SCCOCCSc3nc(-c4ccccc4)c(-c4ccccc4)[nH]3)[nH]c2-c2ccccc2)cc1`, the results for the IC50 in test [1] and in test [2] were 0.026 µM and 6.55 µM, respectively.
For `CC(C)NC(=O)N(CCCCCSc1nc(-c2ccccc2)c(-c2ccccc2)[nH]1)CCc1ccccn1` the same measures were 0.19 µM and 3.05 µM.
For `Cc1nc2ccccc2n1CCCSCCCSc1nc(-c2ccccc2)c(-c2ccccc2)[nH]1` the same measures were 0.25 µM and 7.27 µM.
`c1ccc(-c2nc(SCCCCCOCCc3ccccn3)[nH]c2-c2ccccc2)cc1`: the IC50 in test [2] turned out to be 3.92 µM. In other words, the single-digit micromolar range.
On the same count and under the same terms, to `COc1ccc(-c2nc(SCCCCCN(CCc3nn[nH]n3)C(=O)NC(C)C)[nH]c2-c2ccc(OC)cc2)cc1` belongs 5.5 µM.
With `CC(C)NC(=O)N(CCCCCSc1nc(-c2ccccc2)c(-c2ccccc2)[nH]1)CCCCCSc1nc(-c2ccc(N(C)C)cc2)c(-c2ccc(N(C)C)cc2)[nH]1`, the IC50 was 0.03 µM in test [1] and 0.06 µM in test [2].
As to `COc1ccc(-c2nc(SCCCCCN(CCCn3ccnc3)C(=O)NC(C)C)[nH]c2-c2ccc(OC)cc2)cc1`, inhibition in test [2] was half-maximal at 5.5 µM (IC50).
Consider `c1ccc(-c2nc(SCCCCCSCc3ccccn3)[nH]c2-c2ccccc2)cc1`, for which the half-maximal inhibitory concentration (IC50) came out at 0.31 µM in test [1] and 3.93 µM in test [2].
For `CN(C)c1ccc(-c2nc(SCCOCCSc3[nH]cnc4ncnc3-4)[nH]c2-c2ccc(N(C)C)cc2)cc1` the same measures were 2.04 µM and 2.99 µM.
For `COc1ccc(-c2nc(SCCCCCN(Cc3ccccn3)C(=O)NC(C)C)[nH]c2-c2ccc(OC)cc2)cc1` the same measures were 6.23 µM and 0.06 µM.
For `O=C(Nc1ccc(F)cc1F)N(CCCCCSc1nc(-c2ccccc2)c(-c2ccccc2)[nH]1)c1ccccn1`, in that order: 0.66 µM and 0.79 µM.
`COc1ccc(-c2nc(SCCOCCn3c(C)nc4ccccc43)[nH]c2-c2ccc(OC)cc2)cc1` yielded an IC50 in test [2] of 3.43 µM.
In turn, `COc1ccc(-c2nc(SCCCCCN(Cc3ccccn3)C(=O)Nc3ccc(F)cc3F)[nH]c2-c2ccc(OC)cc2)cc1` registered an IC50 in test [2] of 0.19 µM.
As for `CC(C)NC(=O)N(CCCCCSc1nc(-c2ccccc2)c(-c2ccccc2)[nH]1)c1ccccn1`, the half-inhibitory concentration (IC50) came to 0.1 µM in test [1] and 0.94 µM in test [2].
For `COc1ccc(-c2nc(SCCCCCN(CCc3ccccn3)C(=O)NC(C)C)[nH]c2-c2ccc(OC)cc2)cc1`, in that order: 0.26 µM and 0.09 µM.
`COc1ccc(-c2nc(SCCCCCN(CCc3ccccn3)C(=O)Nc3ccc(F)cc3F)[nH]c2-c2ccc(OC)cc2)cc1`: the values for the IC50 in test [1] and in test [2] were 0.3 µM and 0.69 µM, respectively.
